Results on 5 molecules are retold here after PMC11187542, “Identification of fragments targeting SMYD3 using highly sensitive kinetic and multiplexed biosensor-based screening” (RSC Medicinal Chemistry, 2024).

The target of one test is T1, SMYD3 (apo, native) (Homo sapiens, UniProt Q9H7B4).
T1 construct: Full length recombinant SMYD3 was produced as previously reported; made in house; host or cells: E. coli BL21(DE3), in some cases Rosetta 2
T1 sequence (Q9H7B4 1-428): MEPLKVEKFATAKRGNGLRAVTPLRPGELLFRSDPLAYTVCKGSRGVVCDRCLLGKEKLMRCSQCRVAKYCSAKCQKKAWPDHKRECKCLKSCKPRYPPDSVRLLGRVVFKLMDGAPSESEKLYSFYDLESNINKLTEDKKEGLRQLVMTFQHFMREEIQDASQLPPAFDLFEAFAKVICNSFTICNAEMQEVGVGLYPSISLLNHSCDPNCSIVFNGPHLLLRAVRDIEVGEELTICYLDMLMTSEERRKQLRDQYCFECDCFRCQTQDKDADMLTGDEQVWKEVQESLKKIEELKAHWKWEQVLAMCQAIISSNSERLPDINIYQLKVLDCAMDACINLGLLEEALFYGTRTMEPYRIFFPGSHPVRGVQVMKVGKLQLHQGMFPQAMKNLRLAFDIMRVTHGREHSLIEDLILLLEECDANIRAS
Description: GCI biosensor kinetic screening, apo SMYD3 surface. It counts as binding. The note with it: for LE (ligand efficiency): LE = −RT ln(KD)/n; for kon at 250 µM: read-out: ka. The text has this: (§1) A multiplexed screening assay was set up with three different SMYD3 surfaces and a blank reference surface in flow channels 1–4 (FC1–FC4) (Fig. 2a), as described previously.[5] The apo SMYD3 surface detected fragments interacting anywhere on SMYD3, while a SMYD3 surface blocked by active site-specific tight-binding inhibitor EPZ031686 detected compounds binding elsewhere. The denatured surface served as a reference, detecting fragments binding to unfolded proteins, also potentially present to a significant degree in the other two surfaces.
After preparing the sensor surface and immobilising SMYD3, the functionality of the surface was assessed via analysis of interactions with the co-factor product S-adenosyl-homocysteine (SAH). It was used as a control in all experiments, confirming that sensor surfaces were intact. This was done using the novel multiple injection-based experimental design (Fig. 1) at 25 μM, i.e. in a weak binder mode (Fig. 2b).
(§2) The library was screened using the approach described in Fig. 1, i.e. injection of fragments at 250 μM for increasing durations of time in a single cycle, using a flow rate of 100 μL min^−1, data acquisition set to 40 Hz and with an association time of 5 s and dissociation of 20 s. Each fragment was addressed to all four channels and interactions with the native and blocked surfaces compared. The experimental conditions were chosen to ensure that the assay could reliably characterize the fast and transient interactions expected from typical fragments.
(§3) The kinetic screening of 1056 compounds was successfully completed in 72 hours. […] Hits were identified with full kinetic information using dissociation phases.
(§4) All interaction kinetic experiments were conducted with a GCI–flow-based biosensor (WAVEdelta, Creoptix AG/Malvern Panalytical) and PCH WAVEchip (Creoptix AG/Malvern Panalytical) sensor chips. The sensor chips were conditioned using injections of borate buffer (10 mM sodium tetraborate pH 8.5, 1 M NaCl). The running buffer composition, if not otherwise stated, was TBS buffer (50 mM Tris, 150 mM NaCl, 0.5 mM TCEP, 0.05% Tween 20, 1% DMSO, pH 8). SMYD3 was diluted to the desired concentration in 10 mM bis-Tris (pH 7.0) and amine coupled to the sensor surface of the PCH sensor chip. The sensor chip was functionalized at 25 °C by immobilising SMYD3 with EDC and NHS (Xantec) using an injection time of 420 s and a flow rate of 10 μL min^−1. The immobilisation levels ranged from 5000 pg mm^−2 to 18 500 pg mm^−2 surface mass to enable analysis of fragments spanning a broad range of affinities. After immobilization, the surface was deactivated with a running buffer containing 50 mM Tris for 420 s. The GCI data referencing and analysis were performed using WAVEcontrol V4.5 (Creoptix AG).
(§5) Kinetic measurements with controls and fragments were performed at 15 °C. Analysis of controls and follow up of hits was done using the multi cycle kinetic (MCK) injection of a concentration series for the same time, with a two-fold serial dilution starting at 250 μM for each compound. Solvent correction was performed ranging from 0.5–1.8% DMSO. Blank samples of the running buffer, 1× TBS (50 mM Tris, 150 mM NaCl, 0.5 mM TCEP, 0.05% Tween 20, 1% DMSO, pH 8), were injected during the measurements every fifth cycle. The experimental design illustrated in Fig. 1 was used for the screening against all four surfaces. The sensorgrams were adjusted to account for solvent correction and blank subtraction. Kinetic fitting was performed with the Direct Kinetics engine of WAVEcontrol software V4.5 (Creoptix AG) with a suitable fitting model.

Test [1] addresses T2, SMYD3 (Homo sapiens, UniProt Q9H7B4).
T2 construct: Full length recombinant SMYD3 was produced as previously reported; made in house; host or cells: E. coli BL21(DE3), in some cases Rosetta 2
T2 sequence (Q9H7B4 1-428): T1 sequence (Q9H7B4 1-428)
Description: X-ray crystallography of SMYD3-fragment complexes (co-crystallization and soaking). Further details: key to XRC: success or failure of crystallization in complex with SMYD3: The success (+) or failure (−) of crystallization in complex with SMYD3; The success (+) or failure (−) of crystallization in complex with SMYD3. As to conditions: 5 mM fragment co-crystallization or soaking. The text has this: To identify binding sites and binding modes, the fragment hits (Table 1) were used in both co-crystallization and soaking experiments to obtain SMYD3-fragment co-crystals for X-ray crystallographic analyses. Diffraction data of 1.6–1.9 Å maximum resolution were obtained for four fragments (Fig. 5). For data collection and refinement statistics, see ESI, ^† Table S1.
Four new sites were thus identified.
Polder (F0–Fc) maps (Fig. 5, right) were generated to establish whether the observed electron density features were more likely to represent background noise or to belong to bound fragments. These omit maps are generated upon exclusion of the ligand and surrounding solvent from the model, which aids in visualizing weak densities. […] For fragments FL01507, FL08580 and FL08619, a comparison of the maps obtained after refinement with a bound fragment with maps obtained upon their replacement with either glycerol or acetate, which were present in the crystallization or cryo-protectant solutions, respectively, was required.
8 mg mL^−1 of SMYD3 in storage buffer (TBS buffer containing 2 mM DTT) was pre-incubated for 4–8 hours with 5 mM of a respective fragment hit compound and 10% (v/v) DMSO. Subsequently, 1 μL of this solution was mixed with an equal volume of reservoir solution (100 mM Tris, 100 mM magnesium acetate, 15–17% PEG3350, pH 8.25–8.75) to create the drops for co-crystallization by hanging drop vapour diffusion performed at 20 °C. Needle-like co-crystals nucleated within 12 h of equilibration against the reservoir. In addition, crystals of SMYD3 obtained in ligand-free crystallization setups were soaked with fragment solution prior to freezing. All crystals were cryo-protected via brief immersion in reservoir solution supplemented with 10% (v/v) glycerol.
Diffraction data were collected at beamline ID23-1 of the European Synchrotron Radiation Facility (ESRF, Grenoble, France). Data were indexed, auto-processed, scaled and merged on-site using the implemented data processing routines and software. Fragment-associated electron density features were identified upon data analysis with the Pipedream system (version 1.4.0, Global Phasing Ltd, Cambridge, United Kingdom), which includes data processing with autoPROC,[14] molecular replacement with Phaser,[15] structure refinement with BUSTER version 2.10.4 (Global Phasing Ltd, Cambridge, United Kingdom), automated ligand fitting with Rhofit (Global Phasing Ltd, Cambridge, United Kingdom) and BUSTER post-refinement.[16] Refinement was done with Phenix,[17] and model building with Coot.[18] (F0–Fc) difference density maps for models, from which ligand atoms and surrounding water molecules were removed, were generated using Phenix.

In test [2] the target is T2, SMYD3. Description: GCI biosensor multi cycle kinetic confirmation of hits. In kind it is binding. The note with it: two-fold serial dilution starting at 250 μM, 15 °C, global fit 1:1 model. Here is the method: Selected screening hits were also re-tested by conventional multi cycle kinetic analysis in order to confirm the interactions (some compounds were no longer available). Two variants of the GCI biosensor assay were set up, using different immobilisation levels, to allow the confirmation of hits over a broad range of affinities. […] The kinetics varied for the selected hits (ESI, ^† Fig. S2). All hits were not confirmed (ESI, ^† Fig. S1b).
as §4, §5
FL06268 Superstoichiometric and
Figure 1. Examples of sensorgrams from multicycle kinetic experiments with initial fragment hits and SMYD3. A)
Fragments for which crystal structures of the complex with SMYD3 were obtained. A global fit of the sensorgrams
crystal structures were not obtained. […]

Test [3] has as its target T3, SMYD3 in complex with active site-specific tight-binding inhibitor EPZ031686 (Homo sapiens, UniProt Q9H7B4).
T3 construct: Full length recombinant SMYD3 was produced as previously reported; made in house; host or cells: E. coli BL21(DE3), in some cases Rosetta 2
T3 sequence (Q9H7B4 1-428): T1 sequence (Q9H7B4 1-428)
Description: GCI biosensor kinetic screening, active site blocked SMYD3 surface.
Text: as §1, §2, §3, §4, §5

Test [4] deals with T2, SMYD3. Further details: method as in PMID 31389685. The note with it: previously obtained, SPR-based biosensor assay, cited from earlier work.
[5] abbreviates: initial kinetic screening, fragment 250 μM, 15 °C.
[6] abbreviates: initial kinetic screening, fragment 250 μM, 15 °C, 1:1 model.
Setting [7] is: control SAH at 25 μM, multiple injection design.

Take `N#Cc1cccc(O)c1` [FL01507]: the “LE (ligand efficiency)” value at SMYD3 (apo, native) is listed as 0.72 (kcal^-1 mol^-1)/HA. The Kd on SMYD3 (apo, native) (setting [5]) stood at 17.9 µM. In addition, on SMYD3 (apo, native) (setting [6]), the kd amounted to 1.3 s⁻¹ and the kon at 250 µM was determined as 72000 M⁻¹ s⁻¹. In addition, on SMYD3 [1], the “XRC: success or failure of crystallization in complex with SMYD3” value (from here on “XRC: success or failure”) was “(+)”. Besides, on SMYD3 [2], the “Outcome of multicycle kinetic experiment (sensorgram assessment)” value (“Outcome of multicycle kinetic experiment” below) was “Complex interaction”.
Consider `O=c1cc(C(F)(F)F)c2cc(Cl)c(O)cc2o1` [FL01677], for which the “LE (ligand efficiency)” value at SMYD3 (apo, native) was 0.35 (kcal^-1 mol^-1)/HA. Moreover, the Kd at SMYD3 (apo, native) (setting [5]) came to 44.4 µM. At SMYD3 (apo, native) (setting [6]), the kd stood at 0.96 s⁻¹ and the kon at 250 µM is 21600 M⁻¹ s⁻¹. Further, the “XRC: success or failure” value on SMYD3 [1] is recorded as “(−)”. The “Outcome of multicycle kinetic experiment” value at SMYD3 [2] is “No binding”.
For the molecule `N#Cc1cc(Br)ccc1O` [FL01750], the “LE (ligand efficiency)” value at SMYD3 (apo, native) is listed as 0.61 (kcal^-1 mol^-1)/HA. This molecule had a Kd on SMYD3 (apo, native) (setting [5]) of 31.6 µM. Further, on SMYD3 (apo, native) (setting [6]), the kd was 0.93 s⁻¹ and the kon at 250 µM is 29500 M⁻¹ s⁻¹. The “XRC: success or failure” value at SMYD3 [1] is on record as “(−)”. Besides, the “Outcome of multicycle kinetic experiment” value on SMYD3 [2] is reported as “No binding”.
As for `O=C(O)C(=O)c1ccccc1` [FL08619], the “LE (ligand efficiency)” value in test [3] (LE = −RT ln(KD)/n, blocked SMYD3 surface) is listed as 0.55 (kcal^-1 mol^-1)/HA. Further, binding in test [3] (initial kinetic screening, fragment 250 μM, 15 °C, SMYD3 blocked by EPZ031686) was characterised by a dissociation constant (Kd) of 38 µM. Moreover, the kd in test [3] (initial kinetic screening, fragment 250 μM, 15 °C, SMYD3 blocked by EPZ031686, 1:1 model) came out at 1.06 s⁻¹. In addition, the kon at 250 µM in test [3] (initial kinetic screening, fragment 250 μM, 15 °C, SMYD3 blocked by EPZ031686, 1:1 model, read-out: ka) is 27300 M⁻¹ s⁻¹. For the same molecule, at SMYD3 [1], the “XRC: success or failure” value is “(+)”. In addition, the “Outcome of multicycle kinetic experiment” value at SMYD3 [2] is reported as “Far from saturation”.
At SMYD3 (apo, native) (setting [7]), `Nc1ncnc2c1ncn2[C@@H]1O[C@H](CSCC[C@H](N)C(=O)O)[C@@H](O)[C@H]1O` [SAH, S-adenosyl-homocysteine] had a ka of 304000 to 3.52e+06 M⁻¹ s⁻¹ and a kd of 0.748 to 4.92 s⁻¹. In addition, at SMYD3 [4], the ka entry was “(2.7 ± 0.1) × 10^6 M^-1 s^-1” and the kd was 1.6 ± 0.9 s⁻¹. On SMYD3 [4] (read-out: derived KD), the Kd is 0.611 ± 0.002 µM.
